Measurements as given in US9462805B2, “Herbicide-resistant proteins, encoding genes, and uses thereof” (Beijing Dabeinong Technology Group Co., Ltd., priority 2012, dated 2016).

What was measured:
[1] = test system: Arabidopsis T1 plants transformed with added 24DT02 nucleotide sequence; experiment: Herbicide resistance effect test of transgenic Arabidopsis T1 plants (24DT02-a); format: in vivo, Arabidopsis thaliana; settings: number of T1 plants, genotype 24DT02-a, 560 g ae/ha sprayed; for Moderately resistant: curly rosette leaves 7 days after spraying; for Non-resistant: dead 14 days after spraying; for Highly resistant: growth consistent with blank solvent 7 days after spraying; for Lowly resistant: incapable of bolting 14 days after spraying
Description: (§1) On 7 days after planting (DAP) and 11 DAP respectively, the T1 plants (cotyledon stage and 2-4 leaves stage, respectively) were sprayed with 0.2% of Liberty herbicide solution (200 g ai/L glufosinate-ammonium) using DeVilbiss compressed air nozzle at a spraying volume of 10 ml/disc (703 L/ha) so as to provide effective amount of glufosinate-ammonium (280 g ai/ha) for each application. The survival plants (actively growing plants) were verified 4 to 7 days after the last spraying and transferred into the square pot (7 cm×7 cm) made from vermiculite and horses dung (3-5 plants per pot). The transplanted plants were covered with moisturizing mask for 3-4 days and placed in culture room at 22° C. or directly into the greenhouse as described above. Then the mask was removed and the plants were planted in greenhouse (22±5° C., 50±30% RH, 14 hours of lighting: 10 hours of darkness, minimum […] natural light+complement light) at least one day before testing the ability of 24DT02 to provide the resistance to phenoxy auxin herbicide.
(§2) 24DT02 gene was used to transform Arabidopsis for the first time. At first, T1 transformants were selected from the background of un-transformed seeds, using glufosinate-ammonium selection scheme. About 40000 T1 seeds were screened among which 195 strains of T1 generation positive transformants (PAT gene) were identified, i.e. the transformation efficiency was about 0.5%. Herbicide resistance effect tests to 2,4-D dimethyl ammonium salt and agroxone of Arabidopsis T1 plants transformed with 24DT02 nucleotide sequence, substituted 24DT02 nucleotide sequence, truncated 24DT02 nucleotide sequence, added 24DT02 nucleotide sequence, control nucleotide sequence respectively and wild-type Arabidopsis plants were performed after 18 days of planting.
(§3) Arabidopsis T1 plants transformed with 24DT02 nucleotide sequence, substituted 24DT02 nucleotide sequence, truncated 24DT02 nucleotide sequence, added 24DT02 nucleotide sequence and control nucleotide sequence respectively and wild-type Arabidopsis plants were sprayed with 2,4-D dimethyl ammonium salt (560 g ae/ha, 1-fold concentration in field), agroxone (560 g ae/ha, 1-fold concentration in field) and blank solvent (water). Resistance conditions of the plants were counted 7 days and 14 days after spraying. Plants with growth conditions consistent with blank solvent (water) 7 days after spaying were classified as highly resistant plants; Plants with curly rosette leaves 7 days after spaying were classified as moderately resistant plants; Plants incapable of bolting 14 days after spaying were classified as low-resistant plants and the dead plants 14 days after spaying were classified as non-resistant plants. Because each Arabidopsis T1 plant was an independent transformation event, significant differences of individual T1 responses were expected under a given dose.

[2] = test system: corn plants transfected with control nucleotide sequence; experiment: Herbicide-resistance effect test of corn plants (control sequence; strains S10, S11); format: in vivo, maize; settings: 8960 g ae/ha sprayed, 21 days after spraying; for Abnormal development of prop roots / Normal development of prop roots: number of plants
Description: (§4) Herbicide resistance effects tests to 2,4-D dimethyl ammonium salt and agroxone of maize plants containing 24DT02 nucleotide sequence, 24DT02 substituted nucleotide sequence, 24DT02 truncated nucleotide sequence, 24DT02 added nucleotide sequence, control nucleotide sequence respectively and wild type maize plants (stages V3-V4) were performed respectively.
(§5) Maize plants containing 24DT02 nucleotide sequence, 24DT02 substituted nucleotide sequence, 24DT02 truncated nucleotide sequence, 24DT02 added nucleotide sequence, control nucleotide sequence respectively and wild type maize plants were taken and spayed with 2,4-D dimethyl ammonium salt (8960 g ae/ha, 16-folds concentration in field), agroxone (8960 g ae/ha, 16-folds concentration in field) and blank solvent (water) respectively. Prop root development was counted 21 days after spaying. Three strains (S1, S2, and S3) of corn plants transfected with 24DT02 nucleotide sequence, two strains (S4 and S5) of corn plants transfected with 24DT02 substituted nucleotide sequence, two strains (S6 and S7) of corn plants transfected with 24DT02 truncated nucleotide sequence, two strains (S8 and S9) of corn plants transfected with 24DT02 added nucleotide sequence, two strains (S10 and S11) of corn plants transfected with control nucleotide sequence and 1 strain of wild type (CK) corn were selected and 10-15 plants from each stain were tested.

[3] = test system: corn plants transfected with 24DT02 truncated nucleotide sequence; experiment: Herbicide-resistance effect test of transgenic corn plants (truncated 24DT02; strains S6, S7); format: in vivo, maize; settings: 8960 g ae/ha sprayed, 21 days after spraying; for Abnormal development of prop roots / Normal development of prop roots: number of plants
Description: as §4, §5

[4] = test system: wild-type Arabidopsis plants; experiment: Herbicide resistance effect test of wild-type Arabidopsis plants; format: in vivo, Arabidopsis thaliana; settings: number of plants, genotype Wild, 560 g ae/ha sprayed; for Moderately resistant: curly rosette leaves 7 days after spraying; for Non-resistant: dead 14 days after spraying; for Highly resistant: growth consistent with blank solvent 7 days after spraying; for Lowly resistant: incapable of bolting 14 days after spraying
From the text: 24DT02 gene was used to transform Arabidopsis for the first time. At first, T1 transformants were selected from the background of un-transformed seeds, using glufosinate-ammonium selection scheme. About 40000 T1 seeds were screened among which 195 strains of T1 generation positive transformants (PAT gene) were identified, i.e. the transformation efficiency was about 0.5%. Herbicide resistance effect tests to 2,4-D dimethyl ammonium salt and agroxone of Arabidopsis T1 plants transformed with 24DT02 nucleotide sequence, substituted 24DT02 nucleotide sequence, truncated 24DT02 nucleotide sequence, added 24DT02 nucleotide sequence, control nucleotide sequence respectively and wild-type Arabidopsis plants were performed after 18 days of planting. Arabidopsis T1 plants transformed with 24DT02 nucleotide sequence, substituted 24DT02 nucleotide sequence, truncated 24DT02 nucleotide sequence, added 24DT02 nucleotide sequence and control nucleotide sequence respectively and wild-type Arabidopsis plants were sprayed with 2,4-D dimethyl ammonium salt (560 g ae/ha, 1-fold concentration in field), agroxone (560 g ae/ha, 1-fold concentration in field) and blank solvent (water). Resistance conditions of the plants were counted 7 days and 14 days after spraying. Plants with growth conditions consistent with blank solvent (water) 7 days after spaying were classified as highly resistant plants; Plants with curly rosette leaves 7 days after spaying were classified as moderately resistant plants; Plants incapable of bolting 14 days after spaying were classified as low-resistant plants and the dead plants 14 days after spaying were classified as non-resistant plants. Because each Arabidopsis T1 plant was an independent transformation event, significant differences of individual T1 responses were expected under a given dose.

[5] = test system: Arabidopsis T1 plants transformed with truncated 24DT02 nucleotide sequence; experiment: Herbicide resistance effect test of transgenic Arabidopsis T1 plants (24DT02-t); format: in vivo, Arabidopsis thaliana; settings: number of T1 plants, genotype 24DT02-t, 560 g ae/ha sprayed; for Moderately resistant: curly rosette leaves 7 days after spraying; for Non-resistant: dead 14 days after spraying; for Highly resistant: growth consistent with blank solvent 7 days after spraying; for Lowly resistant: incapable of bolting 14 days after spraying
Description: as §1, §2, §3

[6] = corn strain S10 (control sequence)
[7] = corn strain S11 (control sequence)
[8] = corn strain S6 (truncated 24DT02)
[9] = corn strain S7 (truncated 24DT02)

Compound | Moderately resistant [1] | Non-resistant [1] | Highly resistant [1] | Lowly resistant [1] | Ratio of the normally developed prop roots [2, 6] | Ratio of the normally developed prop roots [2, 7] | Abnormal development of prop roots [2, 6] | Normal development of prop roots [2, 6] | Abnormal development of prop roots [2, 7] | Normal development of prop roots [2, 7] | Ratio of the normally developed prop roots [3, 8] | Ratio of the normally developed prop roots [3, 9] | Abnormal development of prop roots [3, 8] | Normal development of prop roots [3, 8] | Abnormal development of prop roots [3, 9] | Normal development of prop roots [3, 9] | Moderately resistant [4] | Non-resistant [4] | Highly resistant [4] | Lowly resistant [4] | also measured
CNC.O=C(O)COc1ccc(Cl)cc1Cl [2,4-D dimethyl ammonium salt] | 3 | 3 | 10 | 2 | 0% | 0% | 10 | 0 | 11 | 0 | 86.67% | 92.86% | 2 | 13 | 1 | 13 | 0 | 20 | 0 | 0 | Moderately resistant [5]: 5; Non-resistant [5]: 4; Highly resistant [5]: 7; Lowly resistant [5]: 0
Cc1cc(Cl)ccc1OCC(=O)O [agroxone] | 5 | 3 | 8 | 1 | 0% | 0% | 10 | 0 | 10 | 0 | 87.50% | 86.67% | 2 | 14 | 2 | 13 | 0 | 16 | 0 | 0 | Moderately resistant [5]: 4; Non-resistant [5]: 4; Highly resistant [5]: 8; Lowly resistant [5]: 2
